Results published in US11529323B2 (priority 2017, dated 2022).

Key:
serum cytokines = experiment: Serum cytokine panel, multiplex analysis, Study 2, C-26 tumor-bearing mice; assay type: in vivo, mouse; settings: GTx-024 15 mg/kg, AR-42 10 mg/kg p.o. qd, Day 17 sacrifice, mean ± SD
Procedure: These studies were performed as previously described (Tseng Y C, et al. J Natl Cancer Inst. 2015 107(12):djv274) with modifications. Tumors were established in the right flank by subcutaneous injection of C-26 cells (0.5×10^6 cells in 0.1 mL). […] TFM-4AS-1 (a potent experimental SARM), dihydrotestosterone (DHT) and vehicles were administered by subcutaneous injection.
This confirmatory study was performed exactly as Study 1 with expanded animal numbers. Tumor-free control groups were maintained at 6 animals each, whereas 10 animals were included in each of the tumor-bearing groups. […] Grip strength was measured on study days 0 (baseline) and 16. Due to rapid model progression, this study was terminated after only 12 days of treatment.
Serum cytokine panel analyses were performed by a commercial vendor (Eve Technologies, Calgary, Canada) as previously described. Serum interleukin-6 (IL-6) was measured using a commercial ELISA kit (R&D Systems, Minneapolis, Minn., USA) according to the manufacturer's instructions.

phospho-STAT3 (pSTAT3) = experiment: Western blot of phospho-STAT3 in gastrocnemius muscle, Study 1; assay type: in vivo, mouse; settings: C-26 tumor-bearing animals
Excerpt: FIG. 4A is a table showing multiplex analysis of diverse serum cytokines in terminal samples from Study 2. Presented cytokines are limited to those showing significant differences from tumor-bearing vehicle-treated controls. G-CSF: granulocyte colony-stimulating factor, GM-CSF: granulocyte macrophage colony-stimulating factor, IL-6: interleukin-6, IL-17: interleukin-17, IP-10: interferon gamma-induced protein 10, KC: chemokine (C-X-C motif) ligand 1, LIF: leukemia inhibitory factor, M-CSF: macrophage colony-stimulating factor. FIG. 4B is a bar graph showin ELISA analysis of serum IL-6 levels in terminal samples from Study 2. ND, not detected. FIG. 4C is a plot showing individual animal serum IL-6 values as determined in A plotted against tumor-corrected terminal bodyweights from Study 2 (Pearson's Correlation). […]
Western blots from all studies were performed on gastrocnemius muscle from representative animals lysed by Nonidet P-40 isotonic lysis buffer [50 mM Tris-HCl, pH 7.5, 120 mM NaCl, 1% (v/v) Nonidet P-40, 1 mM EDTA, 50 mM NaF, 40 mM glycerophosphate, and […] each of protease inhibitors (aprotinin, pepstatin, and leupeptin)]. Equivalent amounts of protein from each sample, as determined by Bradford assay (Bio-Rad), was resolved by SDS-PAGE and then transferred (semi-dry) onto immobilon-nitrocellulose membranes (Millipore, Billerica, Mass.). […]

SMILES | Eotaxin, serum (serum cytokines) | G-CSF, serum (serum cytokines) | GM-CSF, serum (serum cytokines) | IFNg, serum (serum cytokines) | IL12 (p40), serum (serum cytokines) | IL-1a, serum (serum cytokines) | IL-1b, serum (serum cytokines) | IL-2, serum (serum cytokines) | IL-3, serum (serum cytokines) | IL-4, serum (serum cytokines) | IL-5, serum (serum cytokines) | IL-6, serum (serum cytokines) | IL-7, serum (serum cytokines) | IL-9, serum (serum cytokines) | IL-10, serum (serum cytokines) | IL-12 (p70), serum (serum cytokines) | IL-13, serum (serum cytokines) | IL-15, serum (serum cytokines) | IL-17, serum (serum cytokines) | IP-10, serum (serum cytokines) | also measured
CC(C)[C@H](C(=O)Nc1ccc(C(=O)NO)cc1)c1ccccc1 [AR-42, (S)—N-hydroxy-4-(3-methyl-2-phenylbutanamido)benzamide] | 735.73 ± 110.62 pg/mL | 2782.18 ± 2191.30 pg/mL | 18.70 ± 3.77 pg/mL | 4.69 ± 1.11 pg/mL | 31.22 ± 24.43 pg/mL | 143.31 ± 157.59 pg/mL | 20.48 ± 6.25 pg/mL | 19.37 ± 6.07 pg/mL | 0.72 ± 0.83 pg/mL | 0.32 ± 0.19 pg/mL | 5.50 ± 4.41 pg/mL | 256.59 ± 183.1 pg/mL | 41.51 ± 99.92 pg/mL | 11.28 ± 7.68 pg/mL | 15.13 ± 11.16 pg/mL | 10.16 ± 6.16 pg/mL | 34.19 ± 8.29 pg/mL | 51.57 ± 19.99 pg/mL | 1.82 ± 0.85 pg/mL | 215.35 ± 52.46 pg/mL | KC, serum (serum cytokines): 363.38 ± 200.65 pg/mL; LIF, serum (serum cytokines): 15.79 ± 5.15 pg/mL; LIX, serum (serum cytokines): 2515.38 ± 3119.67 pg/mL; M-CSF, serum (serum cytokines): 20.21 ± 4.63 pg/mL; MCP-1, serum (serum cytokines): 91.18 ± 40.23 pg/mL; MIG, serum (serum cytokines): 55.17 ± 10.58 pg/mL; MIP-1a, serum (serum cytokines): 63.79 ± 19.14 pg/mL; MIP-1b, serum (serum cytokines): 76.41 ± 12.81 pg/mL; MIP-2, serum (serum cytokines): 146.34 ± 32.60 pg/mL; RANTES, serum (serum cytokines): 19.70 ± 4.31 pg/mL; TNFa, serum (serum cytokines): 12.77 ± 4.55 pg/mL; VEGF, serum (serum cytokines): 1.04 ± 0.24 pg/mL; pSTAT3 abundance in gastrocnemius muscle (phospho-STAT3 (pSTAT3)): reduced pSTAT3 but not equally in all animals
C[C@](O)(COc1ccc(C#N)cc1)C(=O)Nc1ccc(C#N)c(C(F)(F)F)c1 [GTx-024, (2S)-3-(4-cyanophenoxy)-N-(4-cyano-3-(trifluoromethyl)phenyl)-2-hydroxy-2-methylpropanamide] | 876.82 ± 100.53 pg/mL | 2446.63 ± 1625.70 pg/mL | 17.35 ± 4.33 pg/mL | 4.12 ± 2.09 pg/mL | 27.61 ± 27.95 pg/mL | 167.80 ± 156.50 pg/mL | 12.12 ± 5.54 pg/mL | 15.62 ± 3.41 pg/mL | 0.92 ± 0.56 pg/mL | 0.23 ± 0.14 pg/mL | 1.11 ± 0.66 pg/mL | 397.54 ± 341.43 pg/mL | 11.19 ± 8.17 pg/mL | 8.69 ± 9.43 pg/mL | 14.15 ± 18.01 pg/mL | 12.62 ± 7.71 pg/mL | 31.63 ± 8.22 pg/mL | 97.32 ± 39.18 pg/mL | 1.75 ± 1.28 pg/mL | 154.76 ± 17.98 pg/mL | KC, serum (serum cytokines): 288.89 ± 154.46 pg/mL; LIF, serum (serum cytokines): 45.26 ± 21.57 pg/mL; LIX, serum (serum cytokines): 5234.39 ± 4771.34 pg/mL; M-CSF, serum (serum cytokines): 22.23 ± 9.45 pg/mL; MCP-1, serum (serum cytokines): 88.07 ± 24.41 pg/mL; MIG, serum (serum cytokines): 39.33 ± 12.88 pg/mL; MIP-1a, serum (serum cytokines): 108.03 ± 27.91 pg/mL; MIP-1b, serum (serum cytokines): 81.67 ± 11.63 pg/mL; MIP-2, serum (serum cytokines): 147.63 ± 59.81 pg/mL; RANTES, serum (serum cytokines): 20.67 ± 4.57 pg/mL; TNFa, serum (serum cytokines): 12.71 ± 5.12 pg/mL; VEGF, serum (serum cytokines): 0.87 ± 0.29 pg/mL; pSTAT3 abundance in gastrocnemius muscle (phospho-STAT3 (pSTAT3)): no apparent effect on pSTAT3
